Usually Emax stands for the maximal effect, on the per cent scale that the assay sets.

Results on one compound are retold here after patent US20010053774A1, “Non-steroidal ligands for the estrogen receptor” (GLAXO WELLCOME INC.., priority 1994, published 2001).

In assay [1] the test system is Ishikawa human endometrioma cell line. Put plainly: Ishikawa cell functional assay of estrogenic activity (alkaline phosphatase induction). The format is cell-based. The procedure:
Subconfluent Ishikawa-Var I cells were removed from maintenance growth conditions and resuspended in phenol red-free DMEM-F12 containing 5% charcoal stripped FBS and 2 mM glutamine at a concentration of 58,500 cells/mL. Cells were plated at a density of 13,000 cells/cm^2 and placed in an incubator (37° C., 5% CO2) for 3 days. Cells were harvested and resuspended in phenol red-free DMEM-F12 containing 1% charcoal stripped FBS, 2 mM glutamine, 100 Units/mL penicillin and 100 μg/mL streptomycin to a concentration of 83,000 cells/mL. Cells were seeded at a density of 8300 cells/well in 96 well plates and allowed to attach overnight. Appropriate drug treatments at 2× concentrations were added in 0.1 mL of medium containing 0.2% DMSO. Plates were incubated for 2 days, media was aspirated and plates washed once with 300 μL 0.9% sterile saline. Plates were frozen at −70° C. and then warmed to RT. The attached cells were assayed for alkaline phosphatase activity by addition of 200 μL of 5 mM p-nitrophenylphosphate in 1 M diethanolamine, pH 10.4, containing 0.1% (w/v) Triton X-100, incubation at 37° C. for 30 min and measurement of absorbance at 405 nm on a Molecular Devices ThermoMax plate reader.

In assay [2] the test system is 90 day old estrogen deficient ovariectomized rats. Put plainly: bone mineral density in ovariectomized rats (lumbar spine and tibia). As to conditions: 10 μmol/kg orally once a day for 28 days, versus sham-operated. The format is in vivo, rat. How it is done: As an example of the functional profile of these compounds in bone, Compound No. 9 was evaluated in 90 day old estrogen deficient ovariectomized rats for their ability to inhibit loss of bone mineral density. Ninety day old SD rats were divided into groups of six. […] were surgically ovariectomized. Two days post-ovariectomy, animals were dosed by gavage with either 10 μmol/kg of Compound No. 9 in 0.5% methyl cellulose or vehicle once a day for 28 days. One group of aminals was sham-operated, and 2 days post-ovariectomy dosed with vehicle once a day for 28 days. At 0, 14 and 28 days, rats were anesthesized with isoflurane and placed in the supine position with their spines parallel to the long axis of the densitometer table. The lumbar spine was scanned using the pelvic bones as a landmark. […] The right tibia was analysed with subregional high resolution software, focusing on the 3-5 mm distal from the growth plate previously identified as a region of accelerated bone loss due to ovariectomy.
BMD was measured by dual-energy X-ray absorptiometry using a Hologic QDR-2000 bone densitometer using a regional high-resolution software package with default scan length, width, line spacing and point resolution of 2, 0.75, 0.01 and 0.005 in. respectively.

For assay [3], the system named is 21 day old female SD rats. Put plainly: in-vivo anti-uterotrophic activity in immature rats (uterine weight/body weight). Set-up: species or system rat. Conditions: 10 μmol/kg by gavage for 3 days, compared with tamoxifen. The procedure:
In order to evaluate the compounds set forth above for in-vivo anti-uterotrophic activity, groups of five 21 day old female SD rats (30-35 g) were weighed and the average weights recorded for each treatment group as illustrated in FIG. 1. Stock solutions (10×) of the triphenylethylene analogs in ethanol were diluted with 0.5% methyl cellulose and 10 μmol/kg was dosed by gavage to the animals. Estradiol was dissolved in sesame oil and 100 nmol/kg dosed by subcutaneous injection. Animals were dosed for 3 days and sacrificed on day 4 by CO2 asphyxiation. The body weights were obtained, uteri removed, blotted and weighed. Data is expressed as uterine weight/body weight±standard error. Solid bars represent data from animals dosed with test compound alone. Open bars represent data from animals dosed with test compounds 6h prior to a dose of estradiol.

With `CCC(=C(c1ccccc1)c1ccc(C=CC(=O)O)cc1)c1ccccc1` [Compound No. 9, 3-[4-(1,2-Diphenyl-but-1-enyl)-phenyl]-acrylic acid], the EC50 in assay [1] (Homo sapiens, 48 h, Ishikawa-Var I cells, 2 days incubation, estrogen agonist activity, read-out: EC50 (concentration inducing 50% of maximal alkaline phosphatase activity)) was 58 nM. Besides, in assay [1] (Homo sapiens, Ishikawa, percentage of the alkaline phosphatase activity induced by a saturating concentration of estradiol, read-out: Emax (maximal alkaline phosphatase activity)), the Emax was determined as 3.8 ± 0.9%. Further, the “agonist activity (Emax) in the Ishikawa cell functional assay (in words)” value in assay [1] (comparison with tamoxifen or within the series) is reported as “lowest residual agonist activity”. In addition, the “bone mineral density (BMD), lumbar spine and tibia (FIG. 2)” value in assay [2] was “full agonist activity”. In addition, in assay [3], the “residual agonist activity, uterine weight/body weight (FIG. 1)” value is listed as “less residual agonist activity than tamoxifen”.
